Data reported in patent publication US10065951B2, “Small molecule transcription modulators of bromodomains” (Icahn School of Medicine at Mount Sinai, priority 2014, dated 2018).

Key:
[1] = tested on: rat primary oligodendrocyte progenitors; experiment: Oligodendrocyte progenitor differentiation (immunocytochemistry NG2/O4/MBP, qRT-PCR MOG); format: cell-based; details: 10 nM
Description: Early and differentiating progenitors were identified by positive immunoreactivity for the marker NG2 (dark) or O4 (light), respectively. FIG. 6B illustrates the number of NG2+, O4+ and NG2+/O4+ cells quantified in three independent experiments and the total number of oligodendrocyte lineage cells (mean±SD). FIG. 6C illustrates the results of rat primary cells cultured in medium containing 4c (10 nM) for 4 days and then labeled with O4 (light) and with the differentiation marker MBP (dark). FIG. 6D is a bar graph showing the number of MBP+ cells quantified in three independent experiments (mean±SD). FIG. 6E illustrates the qRT-PCR of the transcript levels of the late differentiation marker MOG in treated cells.
Cortex from rat p1 pups were dissected in L-15 medium and collected in NM10 medium (DMEM+10% FBS+2 mM glutamine+1 mM sodium pyruvate+100 U/ml penicillin+100 μg/ml streptomycin). The dissociated cells were plated into 75 cm^2 flasks (1.5 brain per flask) and cultured at 37° C. supplied with 5% CO2 for 7 days with the changing of fresh NM10 medium every other day. At day 8 the flasks were shaken for 16-18 h at 200 rpm and 37° C. and the medium containing the ‘shaken-off’ cells were collected. Oligodendrocyte progenitors (OPCs) were then isolated from the cell suspension by immunoselection using A2B5 antibodies followed by incubation with anti-immunoglobulin magnetic microbeads (50 nm in size and biodegradable) and separation using a high-gradient magnetic field generated by the permanent magnet in the MACS Separator unit (Miltenyi Biotec). The purified OPCs were plated in NM10 medium onto Lab Tek®II 8-well chamber slides (Nalge Nunc Inc.) at a density of 2×10^4 per well for immunocytochemistry, or poly-D-lysine-coated 6-well plates at a density of 2×10^5 per well for RNA isolation. After incubated for 8-16 hr, the medium was changed to ODM (DMEM, 2 mM L-glutamine, 1 mM sodium pyruvate, 10 ng/ml biotin, 100 μg/ml apotransferrin, 100 μM putrescine, 20 nM progesterone, 30 nM sodium selenite, 5 μg/ml insulin, 100 U/ml penicillin, 100 μg/ml streptomycin) supplemented with bFGF (20 ng/ml) and platelet derived growth factor (PDGF; 10 ng/ml), and cultured for additional one day as previously described (He, Y. et al., Neuron 55, 217-30 (2007)). Oligodendrocyte differentiation was induced by culturing the cells in the same medium devoid of mitogens (ODM) with or without compounds at indicated concentrations. […]
Images were captured at 20× objective using LSM 710 Meta confocal laser scanning microscope (Carl Zeiss MicroImaging, Inc.). For the quantification of the cells at different stages, three fields of each well and three wells of each condition were analyzed. […]

[2] = tested on: cuprizone-induced demyelination; experiment: Cuprizone model of demyelination in old mice; format: in vivo, mouse; details: injection starting during the 3rd week
Description: Effect of treatment with 2.4 μg/Kg 4c (olinone; red bars) and DMSO (black bars) treatment on the expression of progenitor (i.e. NG2), astrocytic (i.e. GFAP) and oligodendrocyte (i.e. MBP, MOG, PLP) genes.
FIG. 16 illustrates enhanced remyelination in 4c-treated mice. […] Cuprizone damages myelin and this can be best seen as a decreased in the staining intensity. The effect on repair is shown by the darker intensity of the myelinated fibers.
A similar experiment was repeated in the cuprizone model of demyelination (FIG. 15). This model, characterized by precocious loss of myelin gene transcripts and oligodendrocyte apoptosis, followed by a repair phase characterized by expansion of the progenitor pool followed by differentiation has been previously described (Matsushima, G. K., and Morell, P. (2001). Brain Pathol 11:107-116). It was shown that in young mice the repair phase starts at week 3 and is characterized by the HDAC-dependent phase of differentiation of endogenous progenitors (Shen, S., Sandoval, J., Swiss, V. A., Li, J., Dupree, J., Franklin, R. J., and Casaccia-Bonnefil, P. (2008) Nat Neurosci 11:1024-1034) old mice repair was impaired, due to unopposed HAT activity, resulting in high levels of transcriptional inhibitors of oligodendrocyte differentiation and low myelin gene transcripts.

MOG-induced EAE = MOG-induced EAE in mice, 7-day treatment started after onset of clinical symptoms; format: in vivo, mouse; details: treatment from day 18 for 7 days, mice with score 2.5-3.0; after 3-4 days of treatment
Description: FIG. 14 illustrates seven-day 4c treatment accelerates recovery from MOG-induced EAE even if started AFTER the onset of clinical symptoms.
This study was conducted to determine whether the effectiveness of 4c can be observed in animals even if started once the disease has progressed to peak clinical symptoms. For this reason, MOG-dependent EAE in mice was induced and the animals scored daily. On day 18 post-immunization mice with a score of 2.5-3.0 (paralysis of one leg and weakness of the other to paralysis of both hindlimbs) were selected and divided into two groups receiving either 4c or vehicle treatment for 7 days.

SMILES: CC(=O)NCCCCn1c2c(c3ccccc31)C(=O)NCC2 [4c, 2,3,4,5-tetrahydro-5-(4′-acetamidobutyl)-1H-pyrido-[4,3-b]indol-1-one]
- percentage of MBP+ cells ([1]; 4-day treatment): increased percentage of MBP+ cells
- transcript levels of late-differentiation marker MOG ([1]; 4-day treatment, qRT-PCR): increased transcript levels
- NG2+ progenitors ([1]; two-day treatment): concomitant decrease of NG2+ progenitors
- percentage of O4+ cells ([1]; two-day treatment): increased percentage of O4+ cells
- formation of new myelin (eryochrome cyanine staining) [2]: favors the formation of new myelin
- myelin gene transcripts ([2]; 2.4 μg/Kg): increased myelin gene transcripts
- recovery when treatment started at peak clinical symptoms (MOG-induced EAE): showed signs of recovery
